Among the data in patent US8530650B2, “2, 5-diamino-substituted pyrido [4, 3-D] pyrimidines as autotaxin inhibitors against cancer” (MERCK PATENT GmbH, priority 2008, dated 2013) are IC50 values, retold here.

The assay has as its target T1, recombinant autotaxin (Homo sapiens, UniProt Q13822).
T1 construct: made in house; host or cells: Hi5 insect cells (baculovirus)
The experiment in a line: Autotaxin assay (Amplex Red, LPC substrate). The settings on record: 75 μM LPC, Amplex Red fluorescence, ten 1:3 dilutions starting at 30 μM. In kind it is biochemical. On the procedure:
Autotaxin activity is measured indirectly by means of Amplex Red Reagent. In this course, Amplex Red is measured as fluorogenic indicator for generated H2O2. Autotaxin converts substrate lysophosphatidylcholine (LPC) to phosphocholine and lysophosphatidylic acid (LPA). After the conversion phosphocholine is reacted with alkaline phosphatase to obtain inorganic phosphate and choline. During the next step choline is oxidized with choline oxidase to yield betaine, whereby H2O2 is generated. H2O2 reacts with Amplex Red Reagent in the presence of peroxidase (Horseradish peroxidase) in an 1:1 stochiometry and yields highly fluorescent resorufin. The generated fluorescence is measured in a reaction-dependent kinetic mode in order to enable subtraction of fluorescence signals of possible other fluorescent compounds that are not part of the reaction from total measured fluorescence.
1.5 μl of a standard solution or of the compounds of the invention are dissolved in 20 mM Hepes pH 7.2 with maximally 7.7% DMSO in individual concentrations. The resulting solution is pre-incubated together with 10 μl (16 ng) of highly purified recombinant autotaxin in a black 384-hole microtiter plate for 30 min at 22° C. Thereafter, the reaction is started through the addition of 5 μL-a-lysophosphatidylcholine (LPC), whereby the final concentration of LPC is 75 μM. The mixture is incubated for 90 min. at 37° C. After the incubation Amplex Red Reagent, peroxidase (Horseradish peroxidase) and choline oxidase are added. The fluorescence is immediately measured at a wavelength of 612 nm with an excitation wavelength of 485 nm in a “Tecan Ultra multimode” fluorescence reader. The activity of autotaxin is indirectly calculated via the amount of detected generated H2O2.
For IC50 analysis, ten serial 1:3 dilutions starting at 30 μM for each compound were run in duplicates.
IC50 values were calculated on normalized data. For normalization, control wells were added to each assay plate and the signal of uninhibited control wells was set to 100%, whereas the signal inhibited by 500 μM C14 LPA, (Avanti Polar Lipids, Cat# 857120P) was set to 0%. Curves were fitted and IC50 values calculated by the following model using proprietary analysis software: Y=Bottom+(100−Bottom)/(1+10^((LogIC50−X)*HillSlope))
Where X is the logarithm of concentration. Y is the response; Y starts at Bottom and goes to Top with a sigmoid shape.
Protein: Recombinant autotaxin (baculoviral Hi5 expression)
Substrate: L-a-lysophosphatidyl choline (chicken egg); Avanti Polar Lipids #830071 P
Standard: C14 LPA, Avanti Polar Lipids, Cat# 857120P
Detection Reagent Amplex Red Reagent; Invitrogen #A12222; dissolved in 1.923 ml of DMSO peroxidase Type VI-A (horseradish), Sigma #P6782; dissolved in 7.45 ml of test buffer, Choline Oxidase; Sigma #C5896; dissolved in 2.47 ml test buffer
Detection Reagent Mix: 1:100 dilution of Amplex Red Regent in test buffer
Test buffer: 200 mM Tris-HCl, Merck, Cat # 1.08219, pH 7.9; 0.1% BSA, lipid free, Roche Cat#775835

As to `O=C(C1CCN(c2nccc3nc(NCc4ccc(Cl)cc4)ncc23)CC1)N1CCCC1` [Compound 80, {1-[2-(4-Chloro-benzylamino)-pyrido[4,3-d]pyrimidin-5-yl]-piperidin-4-yl}-pyrrolidin-1-yl-methanone], the IC50 (usually the concentration needed to halve the response being measured) was less than 5 µM.
Next, `COc1ccc(CNc2ncc3c(Nc4ccc(F)c(F)c4)nccc3n2)cc1` [Compound 58, N5-(3,4-Difluoro-phenyl)-N2-(4-methoxy-benzyl)-pyrido[4,3-d]pyrimidine-2,5-diamine]: less than 30 µM.
For `O=C(NCc1ccco1)N1CCN(c2nccc3nc(NCc4ccccc4Cl)ncc23)CC1` [Compound 117, 4-[2-(2-Chloro-benzylamino)-pyrido[4,3-d]pyrimidin-5-yl]-piperazine-1-carboxylic acid (furan-2-ylmethyl)-amide] the value was less than 30 µM; for `COc1ccc(Nc2nccc3nc(NCc4ccccc4)ncc23)cc1OC` [Compound 6, N2-Benzyl-N5-(3,4-dimethoxy-phenyl)-pyrido[4,3-d]pyrimidine-2,5-diamine], less than 30 µM.
Next, `CN(C)C(=O)CCC(=O)N1CCN(c2nccc3nc(NCc4ccccc4Cl)ncc23)CC1` [Compound 125, 4-{4-[2-(2-Chloro-benzylamino)-pyrido[4,3-d]pyrimidin-5-yl]-piperazin-1-yl}-N,N-dimethyl-4-oxo-butyramide]: less than 30 µM; `COc1ccc(CNc2ncc3c(Nc4ccc(OC)cc4OC)nccc3n2)cc1` [Compound 56, N5-(2,4-Dimethoxy-phenyl)-N2-(4-methoxy-benzyl)-pyrido[4,3-d]pyrimidine-2,5-diamine]: less than 30 µM; `COc1ccccc1CNc1ncc2c(N3CCC(C(=O)Nc4cc(C)on4)CC3)nccc2n1` [Compound 77, 1-[2-(2-Methoxy-benzylamino)-pyrido[4,3-d]pyrimidin-5-yl]-piperidine-4-carboxylic acid (5-methyl-isoxazol-3-yl)-amide]: less than 30 µM.
`O=C(Cc1ccccn1)N1CCN(c2nccc3nc(NCc4ccccc4Cl)ncc23)CC1` [Compound 119, 1-{4-[2-(2-Chloro-benzylamino)-pyrido[4,3-d]pyrimidin-5-yl]-piperazin-1-yl}-2-pyridin-2-yl-ethanone]: the IC50 is less than 5 µM.
For `Fc1ccc(CNc2ncc3c(Nc4ccccc4F)nccc3n2)cc1` [Compound 24, N2-(4-Fluoro-benzyl)-N5-(2-fluoro-phenyl)-pyrido[4,3-d]pyrimidine-2,5-diamine] the value was less than 30 µM.
Next, `COCCCNC(=O)C1CCCN(c2nccc3nc(NCc4ccccc4Cl)ncc23)C1` (centres unmarked) [Compound 90, 1-[2-(2-Chloro-benzylamino)-pyrido[4,3-d]pyrimidin-5-yl]-piperidine-3-carboxylic acid (3-methoxy-propyl)-amide]: less than 30 µM; `Fc1ccc(CNc2ncc3c(NCc4ccc5nonc5c4)nccc3n2)cc1` [Compound 29, N5-Benzo[1,2,5]oxadiazol-5-ylmethyl-N2-(4-fluoro-benzyl)-pyrido[4,3-d]pyrimidine-2,5-diamine]: less than 30 µM.
Next, `O=C(NC1CC1)C1CCN(c2nccc3nc(NCc4ccccc4Cl)ncc23)CC1` [Compound 69, 1-[2-(2-Chloro-benzylamino)-pyrido[4,3-d]pyrimidin-5-yl]-piperidine-4-carboxylic acid cyclopropylamide]: less than 10 µM; `Cc1cc(NC(=O)C2CCCN(c3nccc4nc(NCc5ccccc5Cl)ncc34)C2)no1` (centres unmarked) [Compound 87, 1-[2-(2-Chloro-benzylamino)-pyrido[4,3-d]pyrimidin-5-yl]-piperidine-3-carboxylic acid (5-methyl-isoxazol-3-yl)-amide]: less than 30 µM.
Turning to `Fc1ccc(Nc2nccc3nc(NCc4ccccc4)ncc23)c(F)c1` [Compound 4, N2-Benzyl-N5-(2,4-difluoro-phenyl)-pyrido[4,3-d]pyrimidine-2,5-diamine], the IC50 is less than 30 µM.
For `C=CCNC(=O)C1CCN(c2nccc3nc(NCc4ccccc4Cl)ncc23)CC1` [Compound 71, 1-[2-(2-Chloro-benzylamino)-pyrido[4,3-d]pyrimidin-5-yl]-piperidine-4-carboxylic acid allylamide] the value was less than 30 µM; for `COc1ccccc1CNc1ncc2c(Nc3ccc(C)cc3)nccc2n1` [Compound 36, N2-(2-Methoxy-benzyl)-N5-p-tolyl-pyrido[4,3-d]pyrimidine-2,5-diamine], less than 30 µM.
As for `Fc1ccc(CNc2ncc3c(Nc4ccc(F)cc4F)nccc3n2)cc1` [Compound 25, N5-(2,4-Difluoro-phenyl)-N2-(4-fluoro-benzyl)-pyrido[4,3-d]pyrimidine-2,5-diamine], the IC50 was less than 30 µM.
For `O=C(O)CN1CCN(c2nccc3nc(NCc4ccccc4Cl)ncc23)CC1` [Compound 145, {4-[2-(2-Chloro-benzylamino)-pyrido[4,3-d]pyrimidin-5-yl]-piperazin-1-yl}-acetic acid] the value was less than 10 µM; for `O=C(C1CCN(c2nccc3nc(NCc4ccccc4Cl)ncc23)CC1)N1CCC[C@H]1CN1CCCC1` [Compound 142, {1-[2-(2-Chloro-benzylamino)-pyrido[4,3-d]pyrimidin-5-yl]-piperidin-4-yl}-((S)-2-pyrrolidin-1-ylmethyl-pyrrolidin-1-yl)-methanone], less than 30 µM.
Next, `COc1ccc(CNc2ncc3c(Nc4ccc5c(c4)OCCO5)nccc3n2)cc1` [Compound 55, N5-(2,3-Dihydro-benzo[1,4]dioxin-6-yl)-N2-(4-methoxy-benzyl)-pyrido[4,3-d]pyrimidine-2,5-diamine]: less than 30 µM; `N#CCC(=O)N1CCN(c2nccc3nc(NCc4ccccc4Cl)ncc23)CC1` [Compound 128, 3-{4-[2-(2-Chloro-benzylamino)-pyrido[4,3-d]pyrimidin-5-yl]-piperazin-1-yl}-3-oxo-propionitrile]: less than 30 µM; `O=C(C1CCCN(c2nccc3nc(NCc4ccc(Cl)cc4)ncc23)C1)N1CCN(c2ccccn2)CC1` (centres unmarked) [Compound 94, {1-[2-(4-Chloro-benzylamino)-pyrido[4,3-d]pyrimidin-5-yl]-piperidin-3-yl}-(4-pyridin-2-yl-piperazin-1-yl)-methanone]: less than 10 µM.
Turning to `COc1ccc(Nc2nccc3nc(NCc4ccccc4Cl)ncc23)c(OC)c1` [Compound 14, N2-(2-Chloro-benzyl)-N5-(2,4-dimethoxy-phenyl)-pyrido[4,3-d]pyrimidine-2,5-diamine], the IC50 is less than 30 µM.
Next, `O=C(OCc1cccnc1)N1CCN(c2nccc3nc(NCc4ccccc4Cl)ncc23)CC1` [Compound 151, 4-[2-(2-Chloro-benzylamino)-pyrido[4,3-d]pyrimidin-5-yl]-piperazine-1-carboxylic acid pyridin-3-ylmethyl ester]: less than 30 µM; `O=C(O)C1CCN(c2nccc3nc(NCc4ccccc4Cl)ncc23)CC1` [Compound 127, 1-[2-(2-Chloro-benzylamino)-pyrido[4,3-d]pyrimidin-5-yl]-piperidine-4-carboxylic acid]: less than 5 µM; `Cc1ccc(CNc2ncc3c(N4CCCC(C(=O)Nc5cccnc5)C4)nccc3n2)cc1` (centres unmarked) [Compound 93, 1-[2-(4-Methyl-benzylamino)-pyrido[4,3-d]pyrimidin-5-yl]-piperidine-3-carboxylic acid pyridin-3-ylamide]: less than 30 µM.
Take `COc1ccc(Nc2nccc3nc(NCc4ccc(F)cc4)ncc23)cc1OC` [Compound 27, N5-(3,4-Dimethoxy-phenyl)-N2-(4-fluoro-benzyl)-pyrido[4,3-d]pyrimidine-2,5-diamine]: the IC50 is less than 30 µM.
Take `Fc1ccc(Nc2nccc3nc(NCc4ccc(Cl)cc4)ncc23)cc1` [Compound 42, N2-(4-Chloro-benzyl)-N5-(4-fluoro-phenyl)-pyrido[4,3-d]pyrimidine-2,5-diamine]: the concentration for half-maximal inhibition (IC50) is less than 30 µM.
For `CC(=O)N1CCN(c2nccc3nc(NCc4ccccc4Cl)ncc23)CC1` [Compound 115, 1-{4-[2-(2-Chloro-benzylamino)-pyrido[4,3-d]pyrimidin-5-yl]-piperazin-1-yl}-ethanone] the value was less than 30 µM.
